Results reported in PubChem BioAssay AID200 (DTP/NCI, 2004).
Values joined by “and” are separate entries in the source; they are usually repeats but may differ in a detail not shown here. Identical values can stand only once. Inconclusive results and toxic doses are left out. Where a SMILES comes first, the peptide text is derived from it.

System: B6C3F1 mice, B16 melanoma ip, median survival T/C
Test: NCI In Vivo Anticancer Drug Screen. Data for tumor model B16 Melanoma (intraperitoneal) in B6C3F1 mice
Conditions: endpoint: median survival time, schedule: Q01DX009 (ip), higher = longer survival
Method in brief: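 Mice bearing transplanted tumor were dosed with compound or vehicle, and survival was recorded. Activity is expressed as the treated-group measurement (T) divided by the vehicle control measurement (C).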

[1] = dose: 100.0 mg/kg/injection, vehicle: Klucel (hydroxypropylcellulose) (HPC)
[2] = dose: 200.0 mg/kg/injection, vehicle: Klucel (hydroxypropylcellulose) (HPC)
[3] = dose: 400.0 mg/kg/injection, vehicle: Klucel (hydroxypropylcellulose) (HPC)
[4] = dose: 50.0 mg/kg/injection, vehicle: Klucel (hydroxypropylcellulose) (HPC)
[5] = dose: 25.0 mg/kg/injection, vehicle: Klucel (hydroxypropylcellulose) (HPC)
[6] = dose: 12.5 mg/kg/injection, vehicle: Klucel (hydroxypropylcellulose) (HPC)
[7] = dose: 25.0 mg/kg/injection, vehicle: saline with Tween-80
[8] = dose: 50.0 mg/kg/injection, vehicle: saline with Tween-80
[9] = dose: 100.0 mg/kg/injection, vehicle: saline with Tween-80
[10] = dose: 200.0 mg/kg/injection, vehicle: saline with Tween-80
[11] = dose: 400.0 mg/kg/injection, vehicle: saline with Tween-80
[12] = dose: 12.5 mg/kg/injection, vehicle: saline
[13] = dose: 25.0 mg/kg/injection, vehicle: saline
[14] = dose: 50.0 mg/kg/injection, vehicle: saline
[15] = dose: 100.0 mg/kg/injection, vehicle: saline
[16] = dose: 200.0 mg/kg/injection, vehicle: saline
[17] = dose: 400.0 mg/kg/injection, vehicle: saline
[18] = dose: 12.5 mg/kg/injection, vehicle: saline with Tween-80
[19] = dose: 6.25 mg/kg/injection, vehicle: saline
[20] = dose: 0.25 mg/kg/injection, vehicle: saline
[21] = dose: 0.5 mg/kg/injection, vehicle: saline

## CSCCC(NC(=O)CNC(=O)CNC(=O)OCc1ccccc1)C(=O)O (stereo not drawn) (HELM PEPTIDE1{[O=C(OCc1ccccc1)[*:2]].G.G.[CSCCC(N[*:1])C(=O)O]}$$$$V2.0)
[1]
  T/C: 100 % of control
[2]
  T/C: 103 % of control
[3]
  T/C: 108 % of control

## C[n+]1cccc(NC(=O)c2ccc(NC(=O)C34CCC(C(=O)Nc5ccc(C(=O)Nc6ccc[n+](C)c6)cc5)(CC3)CC4)cc2)c1
dose: 2.5 mg/kg/injection, vehicle: saline with Tween-80
  T/C: 114 % of control
dose: 5.0 mg/kg/injection, vehicle: saline with Tween-80
  T/C: 111 % of control and 117 % of control and 118 % of control
dose: 10.0 mg/kg/injection, vehicle: saline with Tween-80
  T/C: 119 % of control
dose: 20.0 mg/kg/injection, vehicle: saline with Tween-80
  T/C: 121 % of control and 99 % of control

## COc1ccc2c(c1)CCn1c(C)c(COC(=O)NC(C)C)c(COC(=O)NC(C)C)c1-2
dose: 1.5 mg/kg/injection, vehicle: distilled water + Tween-80
  T/C: 114 % of control
dose: 3.0 mg/kg/injection, vehicle: distilled water + Tween-80
  T/C: 154 % of control
dose: 3.12 mg/kg/injection, vehicle: distilled water + Tween-80
  T/C: 150 % of control
dose: 12.0 mg/kg/injection, vehicle: distilled water + Tween-80
  T/C: 163 % of control
dose: 12.5 mg/kg/injection, vehicle: distilled water + Tween-80
  T/C: 180 % of control

## C[C@]12CCC(=O)C=C1CC[C@@H]1[C@@H]2C(=O)C[C@@]2(C)[C@H]1CC[C@]2(O)C(=O)CO
[4]
  T/C: 106 % of control
[1]
  T/C: 93 % of control
[2]
  T/C: 108 % of control
[3]
  T/C: 117 % of control

## O=C1N[C@H]2[C@H](CS[C@H]2CCCCC(=O)N(CCP(c2ccccc2)c2ccccc2)CCP(c2ccccc2)c2ccccc2)N1
[5]
  T/C: 110 % of control and 97 % of control
[4]
  T/C: 109 % of control and 101 % of control
[1]
  T/C: 105 % of control
[2]
  T/C: 113 % of control
[3]
  T/C: 101 % of control

## CC1(C)N=C(N)N=C(N)N1c1cccc(CCCCc2cccc(N)c2)c1
dose: 6.25 mg/kg/injection, vehicle: Klucel (hydroxypropylcellulose) (HPC)
  T/C: 103 % of control
[6]
  T/C: 108 % of control
[5]
  T/C: 114 % of control

## CC(=O)Nc1cscc1NC(C)=O
[7]
  T/C: 94 % of control and 102 % of control
[8]
  T/C: 111 % of control and 100 % of control
[9]
  T/C: 94 % of control
[10]
  T/C: 108 % of control and 99 % of control
[11]
  T/C: 96 % of control and 104 % of control

## Cc1cn(C2CC(O)C(CO)O2)c(=O)[nH]c1=O (stereo not drawn)
[12]
  T/C: 99 % of control
[13]
  T/C: 98 % of control
[14]
  T/C: 102 % of control
[15]
  T/C: 98 % of control
[16]
  T/C: 98 % of control
[17]
  T/C: 115 % of control

## C=C(NC(=O)C(=C)NC(=O)c1csc(C2=NC3c4csc(n4)C4NC(=O)c5csc(n5)C(C(C)(O)C(C)O)NC(=O)C5CSC(=N5)/C(=C/C)NC(=O)C(C(C)O)NC(=O)c5csc(n5)C3(CC2)NC(=O)C(C)NC(=O)C(=C)NC(=O)C(=C)NC(=O)C(C(C)C)NC2C=Cc3c(C(C)O)cc(nc3C2O)C(=O)OC4C)n1)C(N)=O (stereo not drawn)
[13]
  T/C: 121 % of control
[14]
  T/C: 109 % of control
[16]
  T/C: 121 % of control

## CC(=O)Nc1ccc(O)c(O)c1
[18]
  T/C: 109 % of control and 112 % of control
[7]
  T/C: 114 % of control and 117 % of control
[8]
  T/C: 104 % of control and 105 % of control
[9]
  T/C: 113 % of control and 101 % of control
[10]
  T/C: 113 % of control and 106 % of control
[11]
  T/C: 122 % of control and 106 % of control

## CN1C2CCC1C(Br)C(=O)C2 (stereo not drawn)
[13]
  T/C: 105 % of control
[14]
  T/C: 95 % of control
[15]
  T/C: 93 % of control
[16]
  T/C: 93 % of control

## Clc1ccc2c(Cl)ncnc2c1
[12]
  T/C: 96 % of control
[13]
  T/C: 100 % of control
[8]
  T/C: 93 % of control
[14]
  T/C: 100 % of control

## Cc1ccc(NCC2(/N=C/c3ccccc3)OC(CO)C(O)C2O)cc1 (stereo not drawn)
[3]
  T/C: 161 % of control

## COC1=C(OC)C(=O)C(SC/C=C(\C)CCCC(C)CCCC(C)CCCC(C)C)=CC1=O (stereo not drawn)
dose: 6.25 mg/kg/injection, vehicle: saline with Tween-80
  T/C: 100 % of control
[18]
  T/C: 109 % of control and 94 % of control
[7]
  T/C: 101 % of control and 103 % of control
[8]
  T/C: 121 % of control and 106 % of control
[9]
  T/C: 117 % of control
[10]
  T/C: 116 % of control

## COCCOC(=O)Cc1ccc(OC)c(OC)c1
[12]
  T/C: 108 % of control
[13]
  T/C: 98 % of control
[14]
  T/C: 104 % of control
[17]
  T/C: 87 % of control

## O=C(/C=C(\Cl)C(=O)NO)NO
[19]
  T/C: 100 % of control and 105 % of control
[12]
  T/C: 91 % of control and 100 % of control
[13]
  T/C: 97 % of control and 104 % of control
[14]
  T/C: 108 % of control
[15]
  T/C: 91 % of control

## Nc1cccc(=O)[nH]1
dose: 25.0 mg/kg/injection, vehicle: suspension in saline
  T/C: 93 % of control
dose: 50.0 mg/kg/injection, vehicle: suspension in saline
  T/C: 95 % of control
dose: 100.0 mg/kg/injection, vehicle: suspension in saline
  T/C: 94 % of control
dose: 200.0 mg/kg/injection, vehicle: suspension in saline
  T/C: 94 % of control
dose: 400.0 mg/kg/injection, vehicle: suspension in saline
  T/C: 93 % of control

## Cc1cc2nc3ccc(N)cc3oc-2cc1=[N+](C)C
[12]
  T/C: 106 % of control
[13]
  T/C: 112 % of control

## Nc1nc(SCc2ccccc2)c2ncn(C3OC(CO)CC3O)c2n1 (stereo not drawn)
[4]
  T/C: 116 % of control
[1]
  T/C: 107 % of control

## CSCS(=O)C[C@H](CO)NC(=O)/C=C/c1c(C)[nH]c(=O)[nH]c1=O (stereo partly drawn)
dose: 0.03 mg/kg/injection, vehicle: saline
  T/C: 100 % of control and 104 % of control
dose: 0.06 mg/kg/injection, vehicle: saline
  T/C: 112 % of control and 102 % of control
dose: 0.12 mg/kg/injection, vehicle: saline
  T/C: 98 % of control and 102 % of control
[20]
  T/C: 118 % of control and 98 % of control
[21]
  T/C: 102 % of control
dose: 1.0 mg/kg/injection, vehicle: saline
  T/C: 98 % of control

## Cc1ccc(C(=N)c2ccccc2Cc2cccc3ccccc23)c(C)c1
dose: 0.75 mg/kg/injection, vehicle: saline with Tween-80
  T/C: 107 % of control
dose: 1.5 mg/kg/injection, vehicle: saline with Tween-80
  T/C: 112 % of control
dose: 3.0 mg/kg/injection, vehicle: saline with Tween-80
  T/C: 97 % of control
dose: 6.0 mg/kg/injection, vehicle: saline with Tween-80
  T/C: 98 % of control

## C=C(C)C12OC3(CCCCCCCCC)OC1C1C4OC4(COC(=O)CCCCCCCCCCCCCCC)C(O)C4(O)C(=O)C(C)=CC4C1(O3)C(C)C2OC(=O)c1ccccc1 (stereo not drawn)
dose: 5.0 micrograms/kg/injection, vehicle: saline + alcohol
  T/C: 96 % of control
dose: 10.0 micrograms/kg/injection, vehicle: saline + alcohol
  T/C: 99 % of control
dose: 20.0 micrograms/kg/injection, vehicle: saline + alcohol
  T/C: 86 % of control
dose: 40.0 micrograms/kg/injection, vehicle: saline + alcohol
  T/C: 88 % of control

## CCOC(=O)c1c[nH]c2oc(/C=N/N3CC(CN4CCOCC4)OC3=O)cc2c1=O (stereo not drawn)
[12]
  T/C: 112 % of control
[13]
  T/C: 118 % of control
[14]
  T/C: 117 % of control

## C=C[Si]12OCCN(CCO1)CCO2
[6]
  T/C: 112 % of control and 96 % of control
[5]
  T/C: 95 % of control and 99 % of control
[4]
  T/C: 101 % of control
[1]
  T/C: 111 % of control and 95 % of control
[2]
  T/C: 93 % of control and 104 % of control

## CCC(=O)[O][Bi]([c]1ccccc1)[c]1ccccc1
[5]
  T/C: 92 % of control

## [Cl][Sn]([c]1ccccc1)[c]1ccccc1
dose: 3.12 mg/kg/injection, vehicle: saline
  T/C: 116 % of control
dose: 3.13 mg/kg/injection, vehicle: saline
  T/C: 93 % of control
[19]
  T/C: 122 % of control and 106 % of control
[12]
  T/C: 107 % of control
[13]
  T/C: 118 % of control

## CCOC(=O)NC1=C(N2CC2)C(=O)C(NC(=O)OCC)=C(N2CC2)C1=O
[20]
  T/C: 97 % of control
[21]
  T/C: 92 % of control
dose: 2.0 mg/kg/injection, vehicle: saline
  T/C: 115 % of control
